Reference: US9579314B2 (priority 2015, dated 2017)

How the values were obtained:
Human M3 receptor = Human M3 receptor (Homo sapiens, UniProt P20309); settings: read-out: M3 binding affinity
Human β2 adrenoceptor = Human β2 adrenoceptor (Homo sapiens, UniProt P07550); settings: read-out: B2 binding affinity
Human β2 adrenoceptor, sequence (P07550 whole entry): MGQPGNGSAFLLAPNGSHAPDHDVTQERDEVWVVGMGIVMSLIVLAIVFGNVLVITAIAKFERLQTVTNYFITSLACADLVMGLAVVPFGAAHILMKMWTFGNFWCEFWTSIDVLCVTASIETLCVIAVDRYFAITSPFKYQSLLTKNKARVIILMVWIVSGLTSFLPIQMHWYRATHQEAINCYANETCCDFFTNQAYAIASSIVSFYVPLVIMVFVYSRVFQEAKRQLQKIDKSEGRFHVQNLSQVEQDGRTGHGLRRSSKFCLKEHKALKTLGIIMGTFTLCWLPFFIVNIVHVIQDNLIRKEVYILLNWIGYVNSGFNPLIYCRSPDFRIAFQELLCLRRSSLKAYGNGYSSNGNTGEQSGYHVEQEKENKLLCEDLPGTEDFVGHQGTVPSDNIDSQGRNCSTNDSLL

Human M3 receptor, sequence (P20309 whole entry): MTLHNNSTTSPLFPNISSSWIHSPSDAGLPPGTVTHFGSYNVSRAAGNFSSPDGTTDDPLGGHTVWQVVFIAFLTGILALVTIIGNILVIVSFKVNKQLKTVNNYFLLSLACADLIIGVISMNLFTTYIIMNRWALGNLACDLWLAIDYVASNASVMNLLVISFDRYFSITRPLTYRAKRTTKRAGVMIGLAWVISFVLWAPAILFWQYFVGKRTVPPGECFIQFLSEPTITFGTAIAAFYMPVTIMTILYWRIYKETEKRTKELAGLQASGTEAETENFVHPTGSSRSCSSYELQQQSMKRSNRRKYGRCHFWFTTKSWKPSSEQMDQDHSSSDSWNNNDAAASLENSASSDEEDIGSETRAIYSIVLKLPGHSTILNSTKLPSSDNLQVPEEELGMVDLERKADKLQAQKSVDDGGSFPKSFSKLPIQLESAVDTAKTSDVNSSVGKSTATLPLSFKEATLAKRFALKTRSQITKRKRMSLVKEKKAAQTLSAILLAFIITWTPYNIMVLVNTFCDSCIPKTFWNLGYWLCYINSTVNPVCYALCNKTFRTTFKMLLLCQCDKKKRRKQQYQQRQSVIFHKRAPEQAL

CC(C)Oc1cc(C(=O)NCCCOc2cccc([C@](O)(C(=O)OCC3CCN(Cc4ccccc4)CC3)c3ccccc3)c2)ccc1CNC[C@H](O)c1ccc(O)c2[nH]c(=O)ccc12 [Compound 32G, (S)-(1-benzylpiperidin-4-yl)methyl 2-hydroxy-2-(3-(3-(4-((((R)-2-hydroxy-2-(8-hydroxy-2-oxo-1,2-dihydroquinolin-5-yl)ethyl)amino)methyl)-3-isopropoxybenzamido)propoxy)phenyl)-2-phenylacetate]
IC50 (Human M3 receptor): 0.3 to 3 nM | IC50 (Human β2 adrenoceptor): 0.3 to 3 nM

O=C(NCCCOc1cccc([C@](O)(C(=O)OCC2CCN(Cc3ccccc3)CC2)c2ccccc2)c1)c1ccc(CNC[C@H](O)c2ccc(O)c3[nH]c(=O)ccc23)cc1Cl [Compound 32H, (S)-(1-benzylpiperidin-4-yl)methyl 2-(3-(3-(2-chloro-4-((((R)-2-hydroxy-2-(8-hydroxy-2-oxo-1,2-dihydroquinolin-5-yl)ethyl)amino)methyl)benzamido)propoxy)phenyl)-2-hydroxy-2-phenylacetate]
IC50 (Human M3 receptor): 0.3 to 3 nM | IC50 (Human β2 adrenoceptor): < 0.3 nM

COc1cc(C(=O)NCCCOc2cccc([C@](O)(C(=O)OCC3CCN(Cc4ccccc4)CC3)c3ccccc3)c2)c(F)cc1CNC[C@H](O)c1ccc(O)c2[nH]c(=O)ccc12 [Compound 32I, (S)-(1-benzylpiperidin-4-yl)methyl 2-(3-(3-(2-fluoro-4-((((R)-2-hydroxy-2-(8-hydroxy-2-oxo-1,2-dihydroquinolin-5-yl)ethyl)amino)methyl)-5-methoxybenzamido)propoxy)phenyl)-2-hydroxy-2-phenylacetate]
IC50 (Human M3 receptor): < 0.3 nM | IC50 (Human β2 adrenoceptor): < 0.3 nM

COc1cc(C(=O)NCCCOc2cccc([C@](O)(C(=O)OCC3CCN(Cc4ccccc4)CC3)c3ccccc3)c2)c(Cl)cc1CNC[C@H](O)c1ccc(O)c2[nH]c(=O)ccc12 [Compound 32J, (S)-(1-benzylpiperidin-4-yl)methyl 2-(3-(3-(2-chloro-4-((((R)-2-hydroxy-2-(8-hydroxy-2-oxo-1,2-dihydroquinolin-5-yl)ethyl)amino)methyl)-5-methoxybenzamido)propoxy)phenyl)-2-hydroxy-2-phenylacetate]
IC50 (Human M3 receptor): 0.3 to 3 nM | IC50 (Human β2 adrenoceptor): < 0.3 nM

O=C(NCCCOc1cccc([C@](O)(C(=O)OCC2CCN(Cc3ccccc3)CC2)c2ccccc2)c1)c1ccc(CNC[C@H](O)c2ccc(O)c3[nH]c(=O)ccc23)cn1 [Compound 32K, (S)-(1-benzylpiperidin-4-yl)methyl 2-hydroxy-2-(3-(3-(5-((((R)-2-hydroxy-2-(8-hydroxy-2-oxo-1,2-dihydroquinolin-5-yl)ethyl)amino)methyl)picolinamido)propoxy)phenyl)-2-phenylacetate]
IC50 (Human M3 receptor): 0.3 to 3 nM | IC50 (Human β2 adrenoceptor): < 0.3 nM

O=C(NCCCOc1cccc([C@](O)(C(=O)OCC2CCN(Cc3ccccc3)CC2)c2ccccc2)c1)c1ccc(CNC[C@H](O)c2ccc(O)c3[nH]c(=O)ccc23)c(F)c1F [Compound 32L, (S)-(1-benzylpiperidin-4-yl)methyl 2-(3-(3-(2,3-difluoro-4-((((R)-2-hydroxy-2-(8-hydroxy-2-oxo-1,2-dihydroquinolin-5-yl)ethyl)amino)methyl)benzamido)propoxy)phenyl)-2-hydroxy-2-phenylacetate]
IC50 (Human M3 receptor): 0.3 to 3 nM | IC50 (Human β2 adrenoceptor): > 3 nM

O=C(NCCCOc1cccc([C@](O)(C(=O)OCC2CCN(Cc3ccccc3)CC2)c2ccccc2)c1)c1ccc(CNC[C@H](O)c2ccc(O)c3[nH]c(=O)ccc23)c(C(F)(F)F)c1 [Compound 32M, (S)-(1-benzylpiperidin-4-yl)methyl (S)-2-hydroxy-2-(3-(3-(4-((((R)-2-hydroxy-2-(8-hydroxy-2-oxo-1,2-dihydroquinolin-5-yl)ethyl)amino)methyl)-3-(trifluoromethyl)benzamido)propoxy)phenyl)-2-phenylacetate]
IC50 (Human M3 receptor): 0.3 to 3 nM | IC50 (Human β2 adrenoceptor): > 3 nM

O=C(c1ccc(COc2cccc([C@](O)(C(=O)OCC3CCN(Cc4ccccc4)CC3)c3ccccc3)c2)cc1)N1CCC(CNC[C@H](O)c2ccc(O)c3[nH]c(=O)ccc23)CC1 [Compound 33, (S)-(1-benzylpiperidin-4-yl)methyl 2-hydroxy-2-(3-((4-(4-((((R)-2-hydroxy-2-(8-hydroxy-2-oxo-1,2-dihydroquinolin-5-yl)ethyl)amino)methyl)-piperidine-1-carbonyl)benzyl)oxy)phenyl)-2-phenylacetate]
IC50 (Human M3 receptor): < 0.3 nM | IC50 (Human β2 adrenoceptor): < 0.3 nM

O=C1C=Cc2c([C@@H](O)CNCCC3CCN(C(=O)c4ccc(COc5cccc([C@](O)(C(=O)OCC6CCN(Cc7ccccc7)CC6)c6ccccc6)c5)cc4)CC3)ccc(O)c2C1 [Compound 33A, (1-benzylpiperidin-4-yl)methyl (S)-2-hydroxy-2-(3-((4-(4-(2-(((R)-2-hydroxy-2-(4-hydroxy-6-oxo-5,6-dihydronaphthalen-1-yl)ethyl)amino)ethyl)piperidine-1-carbonyl)benzyl)oxy)phenyl)-2-phenylacetate]
IC50 (Human M3 receptor): 0.3 to 3 nM | IC50 (Human β2 adrenoceptor): < 0.3 nM

O=C(NCCOc1cccc([C@@](O)(C(=O)OCC2CCN(Cc3ccccc3)CC2)c2ccccc2)c1)c1ccc(CCNC[C@H](O)c2ccc(O)c3[nH]c(=O)ccc23)cc1 [Compound 34, (R)-(1-benzylpiperidin-4-yl)methyl 2-hydroxy-2-(3-(2-(4-(2-(((R)-2-hydroxy-2-(8-hydroxy-2-oxo-1,2-dihydroquinolin-5-yl)ethyl)amino)ethyl)benzamido)ethoxy)phenyl)-2-phenylacetate]
IC50 (Human M3 receptor): > 3 nM | IC50 (Human β2 adrenoceptor): 0.3 to 3 nM

O=C(c1cccc(COc2cccc([C@](O)(C(=O)OCC3CCN(Cc4ccccc4)CC3)c3ccccc3)c2)c1)N1CCC(CNC[C@H](O)c2ccc(O)c3[nH]c(=O)ccc23)CC1 [Compound 35, (S)-(1-benzylpiperidin-4-yl)methyl 2-hydroxy-2-(3-((3-(4-((((R)-2-hydroxy-2-(8-hydroxy-2-oxo-1,2-dihydroquinolin-5-yl)ethyl)amino)methyl)-piperidine-1-carbonyl)benzyl)oxy)phenyl)-2-phenylacetate]
IC50 (Human M3 receptor): < 0.3 nM | IC50 (Human β2 adrenoceptor): < 0.3 nM

O=C(COc1cccc([C@](O)(C(=O)OCC2CCN(Cc3ccccc3)CC2)c2ccccc2)c1)N1CCC(CNC[C@H](O)c2ccc(O)c3[nH]c(=O)ccc23)CC1 [Compound 36, (S)-(1-benzylpiperidin-4-yl)methyl 2-hydroxy-2-(3-(2-(4-((((R)-2-hydroxy-2-(8-hydroxy-2-oxo-1,2-dihydroquinolin-5-yl)ethyl)amino)methyl)piperidin-1-yl)-2-oxoethoxy)phenyl)-2-phenylacetate]
IC50 (Human M3 receptor): < 0.3 nM | IC50 (Human β2 adrenoceptor): < 0.3 nM

O=C(COc1cccc([C@](O)(C(=O)OCC2CCN(Cc3ccccc3)CC2)c2ccccc2)c1)N1CCC(CCNC[C@H](O)c2ccc(O)c3[nH]c(=O)ccc23)CC1 [Compound 36A, (1-benzylpiperidin-4-yl)methyl (S)-2-hydroxy-2-(3-(2-(4-(2-(((R)-2-hydroxy-2-(8-hydroxy-2-oxo-1,2-dihydroquinolin-5-yl)ethyl)amino)ethyl)piperidin-1-yl)-2-oxoethoxy)phenyl)-2-phenylacetate]
IC50 (Human M3 receptor): 0.3 to 3 nM | IC50 (Human β2 adrenoceptor): 0.3 to 3 nM

O=C(NCCCOc1cccc([C@](O)(C(=O)OCC2CCN(Cc3ccccc3)CC2)c2ccccc2)c1)c1ccc(CCNC[C@H](O)c2ccc(O)c3[nH]c(=O)ccc23)cc1 [Compound 37, (S)-(1-benzylpiperidin-4-yl)methyl 2-hydroxy-2-(3-(3-(4-(2-(((R)-2-hydroxy-2-(8-hydroxy-2-oxo-1,2-dihydroquinolin-5-yl)ethyl)amino)ethyl)benzamido)propoxy)phenyl)-2-phenylacetate]
IC50 (Human M3 receptor): < 0.3 nM | IC50 (Human β2 adrenoceptor): < 0.3 nM

O=C(NCCOc1cccc([C@](O)(C(=O)OCC2CCN(Cc3ccccc3)CC2)c2ccccc2)c1)c1ccc(CCNC[C@H](O)c2ccc(O)c3[nH]c(=O)ccc23)cc1 [Compound 38, (S)-(1-benzylpiperidin-4-yl)methyl 2-hydroxy-2-(3-(2-(4-(2-(((R)-2-hydroxy-2-(8-hydroxy-2-oxo-1,2-dihydroquinolin-5-yl)ethyl)amino)ethyl)benzamido)ethoxy)phenyl)-2-phenylacetate]
IC50 (Human M3 receptor): < 0.3 nM | IC50 (Human β2 adrenoceptor): < 0.3 nM

O=C(NCCc1cccc(C(O)(C(=O)OCC2CCN(Cc3ccccc3)CC2)c2ccccc2)c1)c1ccc(CCNC[C@H](O)c2ccc(O)c3[nH]c(=O)ccc23)cc1 (stereo partly drawn) [Compound 40, (1-benzylpiperidin-4-yl)methyl 2-hydroxy-2-(3-(2-(4-(2-(((R)-2-hydroxy-2-(8-hydroxy-2-oxo-1,2-dihydroquinolin-5-yl)ethyl)amino)ethyl)benzamido)ethyl)phenyl)-2-phenylacetate]
IC50 (Human M3 receptor): 0.3 to 3 nM | IC50 (Human β2 adrenoceptor): 0.3 to 3 nM

O=C(c1ccc(CNC[C@H](O)c2ccc(O)c3[nH]c(=O)ccc23)cc1)N1CC(COc2cccc([C@](O)(C(=O)OCC3CCN(Cc4ccccc4)CC3)c3ccccc3)c2)C1 [Compound 41, (S)-(1-benzylpiperidin-4-yl)methyl 2-hydroxy-2-(3-((1-(4-((((R)-2-hydroxy-2-(8-hydroxy-2-oxo-1,2-dihydroquinolin-5-yl)ethyl)amino)methyl)-benzoyl)azetidin-3-yl)methoxy)phenyl)-2-phenylacetate]
IC50 (Human M3 receptor): 0.3 to 3 nM | IC50 (Human β2 adrenoceptor): 0.3 to 3 nM

O=C(c1ccc(CCNC[C@H](O)c2ccc(O)c3[nH]c(=O)ccc23)cc1)N1CC(COc2cccc([C@](O)(C(=O)OCC3CCN(Cc4ccccc4)CC3)c3ccccc3)c2)C1 [Compound 42, (S)-(1-benzylpiperidin-4-yl)methyl 2-hydroxy-2-(3-((1-(4-(2-(((R)-2-hydroxy-2-(8-hydroxy-2-oxo-1,2-dihydroquinolin-5-yl)ethyl)amino)ethyl)benzoyl)azetidin-3-yl)methoxy)phenyl)-2-phenylacetate]
IC50 (Human M3 receptor): < 0.3 nM | IC50 (Human β2 adrenoceptor): < 0.3 nM

COc1cc(NC(=O)COc2cccc([C@](O)(C(=O)OCC3CCN(Cc4ccccc4)CC3)c3ccccc3)c2)ccc1CNC[C@H](O)c1ccc(O)c2[nH]c(=O)ccc12 [Compound 42A, (S)-(1-benzylpiperidin-4-yl)methyl 2-hydroxy-2-(3-(2-((4-((((R)-2-hydroxy-2-(8-hydroxy-2-oxo-1,2-dihydroquinolin-5-yl)ethyl)amino)methyl)-3-methoxyphenyl)amino)-2-oxoethoxy)phenyl)-2-phenylacetate]
IC50 (Human M3 receptor): < 0.3 nM | IC50 (Human β2 adrenoceptor): 0.3 to 3 nM
